Measured values as given in patent US20260242338A1, “CRYSTALS OF N[…]” (KYOTO DRUG DISCOVERY & DEVELOPMENT CO., LTD., priority 2022, published 2026).
Read-outs that look alike come from different tables or passages of the source.

Format: physicochemical
Protocol: X-ray powder diffraction data were acquired using PhotonMax high-flux 9 KW rotating cathode X-ray generator (SmartLab 9 KW, Rigaku). All diffractograms were acquired using copper radiation (CuKα, 45 kV/200 mA, λ=1.5418 Å) and using KB filter to reduce unneeded radiation. The measurement was carried out by placing the sample gently crushed in an agate mortar on a measurement stand and then scanning the sample under 2θscanning conditions with a scanning range of 3° to 40°, a scanning speed of 20°/min, and a step size of 0.02°.
X-ray powder diffraction data were acquired using a diffractometer (MiniFlex 600, Rigaku). All diffractograms were acquired using copper radiation (CuKα, 40 kV/15 mA, λ=1.5418 Å) and using KB filter to reduce unneeded radiation. Scanning was carried out in 2θ with a scanning range of 5° to 50°, a scanning speed of 5°/min, and a step size of 0.02°.
The water content was measured using a coulometric moisture meter (CA-100, Nitto Seiko Analytech), using about 0.5 g of the solid sample, Aquamicron GEX as the solvent, and 3 mg of Aquamicron SS as a titrant.
The water content was measured using a Karl Fischer moisture meter (AQUACOUNTER AQV-2100, HIRANUMA) equipped with an electrolytic bath stirrer for iodine generation and a constant current potentiometer, using about 0.2 g of the solid sample, Aquamicron GEX as the solvent, and 3 mg of Aquamicron SS-Z as a titrant.
The crystal of KUS121 dihydrate was subjected to a normal storage stability test (25° C./60% RH, 18 months) and a storage stability test under accelerated test condition (40° C./75% RH, 6 months). For comparison, the crystal of KUS121 anhydride was also subjected to storage stability tests under accelerated test condition (40° C./75% RH, 6 months) and under ambient temperature condition (30 months).

[1] = 40° C./75% RH (6 months), dihydrate

| Compound | Content (25° C./60% RH (18 months)) [%] | Related substance (25° C./60% RH (18 months)) [%] | Water content (25° C./60% RH (18 months)) [%] | Related substance (40° C./75% RH (6 months)) [%] | Content [1] [%] | Water content [1] [%] | Related substance (Initial) [%] | Content (Initial, dihydrate) [%] | Water content (Initial, dihydrate) [%] | Storage stability (overall statement) (compared with other hydrate crystals, accelerated test condition) | Content (40° C./75% RH (6 months)) [%] | Purity test (40° C./75% RH (6 months)) [%] | Water content (40° C./75% RH (6 months)) [%] | Water content (Ambient temperature (30 months)) [%] | Content (Initial) [%] | Purity test (Initial) [%] | Water content (Initial) [%] |
| --- | --- | --- | --- | --- | --- | --- | --- | --- | --- | --- | --- | --- | --- | --- | --- | --- | --- |
| Cc1cc(F)ccc1-c1ccc(/N=N/c2cc(S(=O)(=O)[O-])c3ccccc3c2N)cn1.[Na+] [Crystal of KUS121 dihydrate, sodium 4-amino-3-[6-(4-fluoro-2-methylphenyl)pyridin-3-ylazo]naphthalene-1-sulfonate dihydrate] | 99.6 | 0.11 | 7.4 | 0.09 | 99.6 | 7.4 | 0.07 | 99.7 | 7.4 | had better storage stability than other hydrate crystals, and was extremely stable even under accelerated test condition | – | – | – | – | – | – | – |
| Cc1cc(F)ccc1-c1ccc(/N=N/c2cc(S(=O)(=O)[O-])c3ccccc3c2N)cn1.[Na+] [Crystal of KUS121 anhydride, Sodium 4-amino-3-[6-(4-fluoro-2-methylphenyl)pyridin-3-ylazo]naphthalene-1-sulfonate] | – | – | – | – | – | – | – | – | – | – | 100.8 | 99.5 | 3.0 | 9.1 | 98.2 | 99.5 | 0.8 |
